From ChEMBL document CHEMBL3507680, “University of Dundee, Gates Library screen for HepG2 cell viability”

Experiment: Human HepG2 cell viability assay in 384 well format
Type: toxicity, cell-based
Parameters: dose 125 nL, time 70.5 hour; cytotoxicity at 70.5 h: concentration not given beside the values
Conditions: HepG2 cells, read-out: Inhibition
Compound CCN(CC)C(=O)c1ccn(COc2ccc(F)cc2)n1 has a cytotoxicity at 70.5 h of -10.8%. CN(C)C(CNC(=O)c1ccnc(-n2cncn2)c1)c1ccccc1 (stereo unspecified) showed a cytotoxicity at 70.5 h of -9.4%. Work on Cc1noc(CNC(=O)NCCOc2ccc(Cl)cc2)n1 yielded a cytotoxicity at 70.5 h of -3.2%. In the case of Cc1cc(NCCNS(C)(=O)=O)nc2cc3c(cc12)CCC3, the cytotoxicity at 70.5 h is reported as -5.01%. O=C(CCc1nccs1)N1CCCC(n2ccnc2)C1 (stereo unspecified) showed a cytotoxicity at 70.5 h of -11.8%. With CCN(CC)C(=O)N1CCN(Cc2cnc(C)nc2)[C@H]2CS(=O)(=O)C[C@H]21 the cytotoxicity at 70.5 h was -17.5%. With Cc1nncn1CCN1C(=O)CC2(CCCC2)CC1=O the cytotoxicity at 70.5 h was -7.54%. Cn1nc(COc2cccnc2)c2c1CCN(CC1CC1)C2 showed a cytotoxicity at 70.5 h of -8.94%. For Cc1cccc(N2Cc3c(NC4CCCC4)ncnc3N(C)CC2=O)c1, the cytotoxicity at 70.5 h was -4.33%. CC(C)NC(=O)[C@@H]1CC[C@@H]2[C@@H](CCN2Cc2cn(C)c3ccccc23)O1 gave a cytotoxicity at 70.5 h of -2.33%. CCc1nc(NS(=O)(=O)c2cc(C)c(F)cc2Cl)no1 gave a cytotoxicity at 70.5 h of 25.9%. Work on CN(C)CCO[C@H]1CN(C(=O)c2ccc(C#N)cc2)[C@@H]2COC[C@H]12 yielded a cytotoxicity at 70.5 h of -11%. In the case of N#Cc1cc(F)ccc1Cn1cnc(C2CCC2)cc1=O, the cytotoxicity at 70.5 h is reported as 1.8%. For Cc1ccc2nc(C3CCCN3C(=O)c3cc(=O)[nH]c(=O)[nH]3)[nH]c2c1 (stereo unspecified), the cytotoxicity at 70.5 h was 30.8%. CC(O)CN1CCN(C(=O)c2cnn(-c3ccc(Cl)cc3)c2)CC1 (stereo unspecified) gave a cytotoxicity at 70.5 h of -5.02%. For CC(C)C1CN(c2ncccn2)CCC(=O)N1Cc1ccc(F)cc1 (stereo unspecified), the cytotoxicity at 70.5 h was 1.56%. Compound CCn1c(NCc2ccccn2)nc2c(C)nn(C)c2c1=O has a cytotoxicity at 70.5 h of -3.41%. Compound CCN(Cc1cc(-c2ccccn2)no1)C1CCS(=O)(=O)C1 (stereo unspecified) has a cytotoxicity at 70.5 h of -9.24%. O=C(Nc1cnccn1)[C@@H]1C[C@H]2OCC[C@H]2N(c2ncc(F)cn2)C1 gave a cytotoxicity at 70.5 h of 18%. In the case of Cc1cc(C[C@@H]2COC[C@H]2NCc2ccc(C(C)C)cc2)on1, the cytotoxicity at 70.5 h is reported as -8.05%. Work on CN(C)Cc1ccc(C2CCCCN2C(=O)c2cccnn2)cc1 (stereo unspecified) yielded a cytotoxicity at 70.5 h of 2.83%. COc1c(C2CCCN2C(=O)c2cc(Cl)c[nH]2)c(C)nn1C (stereo unspecified) gave a cytotoxicity at 70.5 h of -0.121%. With Cc1c(C(=O)O)oc2ccc(I)cc12 the cytotoxicity at 70.5 h was -5.09%. For CC(=O)N1CCn2cc(CNC(=O)c3cccn3C)nc2C1, the cytotoxicity at 70.5 h was -10.7%. Compound O=C(c1ccoc1)N1CCC(Nc2cccnn2)CC1 has a cytotoxicity at 70.5 h of -8.84%. With Cn1cc(N2CCC3(CCN(Cc4cccnc4)C3)C2=O)cn1 (stereo unspecified) the cytotoxicity at 70.5 h was -17.1%. With F[C@@H]1CN(Cc2ccccc2)C[C@@H]1OCc1nc2cnccc2[nH]1 the cytotoxicity at 70.5 h was 13.9%. With CN(C)CCN(C(=O)Cc1ccc2c(c1)OCCO2)C1CCN(C)CC1 the cytotoxicity at 70.5 h was 2.11%. Compound O=C(CCN1CCSCC1c1ccccc1)N1CCOCC1 (stereo unspecified) has a cytotoxicity at 70.5 h of 7.46%. For CC(C)N1CCC(CC(=O)N2CCCCC2CCn2cccn2)CC1 (stereo unspecified), the cytotoxicity at 70.5 h was -10.4%. Work on CC(C)c1nc(C2CCCN2C(=O)CCn2cncn2)no1 (stereo unspecified) yielded a cytotoxicity at 70.5 h of -7.37%. Cn1cc(NC(=O)Cn2c(CS(C)(=O)=O)nc3ccccc32)cn1 showed a cytotoxicity at 70.5 h of -6.35%. Work on CC(=O)NC(=O)C1(CCCc2ccncc2)CCN1 (stereo unspecified) yielded a cytotoxicity at 70.5 h of -2.25%. With CS(=O)(=O)NCCNC(=O)Cc1ccc(Br)s1 the cytotoxicity at 70.5 h was -3.17%. In the case of CCn1nc(C(C)C)cc1C(=O)NCC1CCCN(c2ccccn2)C1 (stereo unspecified), the cytotoxicity at 70.5 h is reported as -6.28%. Work on Cc1ccccc1N1CCCN(C(=O)CCCS(N)(=O)=O)CC1 yielded a cytotoxicity at 70.5 h of 15.2%. Compound Cc1nonc1C1CCCN1C(=O)c1cc2n(n1)CCCNC2 (stereo unspecified) has a cytotoxicity at 70.5 h of 4.03%. Work on CNc1cc(N2CCCC2CNCc2cccs2)ncn1 (stereo unspecified) yielded a cytotoxicity at 70.5 h of -1.51%. Work on CC(C)NC(=O)N1CC[C@@H]2CN(Cc3cccc(Cl)c3)S(=O)(=O)[C@@H]2CC1 yielded a cytotoxicity at 70.5 h of 27%. Work on Cc1nn(C)cc1CN(C)C(=O)c1ccccn1 yielded a cytotoxicity at 70.5 h of 1.81%. Work on CCc1sc(-c2nnc(CNCCn3cc(C)cn3)o2)cc1C yielded a cytotoxicity at 70.5 h of -1.42%. With COCCN1CCC(c2nc3ccc(N4CCCC4)cn3n2)CC1 the cytotoxicity at 70.5 h was -8.32%. Work on CC(=O)N1N=C(c2ccccc2)OC1C(=O)NCCc1cccc(Cl)c1 (stereo unspecified) yielded a cytotoxicity at 70.5 h of -19.7%. For COc1ccccc1CC(C)(C)NC(=O)CN(C)C(C)C, the cytotoxicity at 70.5 h was -11.5%. Work on CC(=O)N1CCN(C2CCc3ccccc32)CC1 (stereo unspecified) yielded a cytotoxicity at 70.5 h of -2.55%. With CC(C)c1ccc2c(c1)CCCN2C(=O)CN(C)S(C)(=O)=O the cytotoxicity at 70.5 h was -94.4%. Compound CCC(=O)NC(C)c1ccccc1C (stereo unspecified) has a cytotoxicity at 70.5 h of 0.0127%. With Cn1cc(N2CCC3(CCN(S(=O)(=O)C4CC4)C3)C2=O)cn1 (stereo unspecified) the cytotoxicity at 70.5 h was 4.38%. In the case of COc1ccc(F)cc1C(=O)C1CCCN(Cc2ccc(C)s2)C1 (stereo unspecified), the cytotoxicity at 70.5 h is reported as -12.9%. O=C(Cn1ccc(-c2ccccc2)n1)N1CCN(C(=O)C2CC2)CC1 showed a cytotoxicity at 70.5 h of -2.62%. Work on O=C(NC1CCC1)c1cccc(S(=O)(=O)NCc2nc(C3CC3)no2)c1 yielded a cytotoxicity at 70.5 h of 6.45%. For CCNC(=O)[C@@H]1C[C@@H](NC(=O)c2cc(C)on2)CN1Cc1ccccn1, the cytotoxicity at 70.5 h was 24.8%. CN(C)C(=O)Cc1nc(CN2CCCC2Cn2cccn2)cs1 (stereo unspecified) gave a cytotoxicity at 70.5 h of -6.16%. With CC1CCCN(c2ncc(C(=O)NCc3ccc(F)c(Cl)c3)c(N)n2)C1 (stereo unspecified) the cytotoxicity at 70.5 h was 19.8%. Compound CC(C)CNC(=O)[C@H]1C[C@@H]2CN(Cc3cccnc3)C[C@H]1O2 has a cytotoxicity at 70.5 h of -2.17%. With Cc1n[nH]c(C2CN(C(=O)c3ccon3)CCO2)n1 (stereo unspecified) the cytotoxicity at 70.5 h was -10.2%. In the case of COc1ccc(C(=O)NCC(C)(O)CCc2ccccc2)cc1 (stereo unspecified), the cytotoxicity at 70.5 h is reported as 3.78%. Compound Cc1nn(C)c2c(N(C)Cc3ccco3)nc(C3CC3)nc12 has a cytotoxicity at 70.5 h of 15.5%. Compound NC[C@H]1CC[C@H](C(NC(=O)CC2CCCCC2)c2ccccn2)CC1 (stereo partly specified) has a cytotoxicity at 70.5 h of -6.94%. Work on O=C(c1ccnnc1)N1CCN(Cc2cccnc2)c2ncccc2C1 yielded a cytotoxicity at 70.5 h of -8.62%. With Cn1cccc1C(=O)N1CCC2(CCN(C(=O)c3cccnc3)C2)CC1 the cytotoxicity at 70.5 h was 3.23%. Work on Cc1nn(CC(=O)N2CCN(Cc3cnn(C)c3C)CC2)cc1Br yielded a cytotoxicity at 70.5 h of 29.4%. Work on Cc1cc(CNc2cc(Cl)ccc2Cl)no1 yielded a cytotoxicity at 70.5 h of -14.1%. With CC(=O)NCCNC(=O)NCCCc1cccc(F)c1 the cytotoxicity at 70.5 h was -5.39%. Work on CCOC(=O)CCC(=O)N1CCC(CSCc2ccco2)CC1 yielded a cytotoxicity at 70.5 h of -12%. For Cc1csc(C2(NCc3nnc(-c4ccco4)o3)CCCC2)n1, the cytotoxicity at 70.5 h was 0.188%. NS(=O)(=O)CCNC(=O)c1cc2cccc(F)c2o1 gave a cytotoxicity at 70.5 h of 18%. For Cn1nc(COCC2CC2)c2c1CCN(Cc1ccco1)C2, the cytotoxicity at 70.5 h was -9.54%. Compound C[C@H](O)CNc1cc(-c2ccccc2)ncn1 has a cytotoxicity at 70.5 h of -0.249%. Compound Cc1nccn1CCCC(=O)Nc1nc(C(C)C)nn1C has a cytotoxicity at 70.5 h of 10.2%. For Cc1cnn(CC2CCCCN2CCCS(=O)(=O)N(C)C)c1 (stereo unspecified), the cytotoxicity at 70.5 h was 18.7%. For Cc1nc(CN2CCCN(C(=O)c3cnccn3)CC2)cs1, the cytotoxicity at 70.5 h was -3.13%. For CCSCCC(=O)Nc1ncn(Cc2ccccc2)n1, the cytotoxicity at 70.5 h was -14.4%. Compound O=C(CN(Cc1cccc(F)c1)CC1CCCO1)N1CCCC1 (stereo unspecified) has a cytotoxicity at 70.5 h of 13.7%. CN(C)c1nc2n(c(=O)n1)CCN2C(=O)Nc1ccccc1 showed a cytotoxicity at 70.5 h of -5.25%. CS(=O)(=O)N1CCO[C@@H]2CN(C(=O)COC3CCCC3)C[C@@H]2C1 showed a cytotoxicity at 70.5 h of 7.96%. In the case of CCn1c(CN2CCN(CCOC)CC2)nc2c(F)cccc21, the cytotoxicity at 70.5 h is reported as 2.86%. In the case of CN(CCc1ccccc1)Cc1c(C2CCOCC2)[nH]c2ncccc12, the cytotoxicity at 70.5 h is reported as -2.01%. For O=C(c1ccccn1)N1CC[C@H]2[C@H]1CCN2S(=O)(=O)C1CC1, the cytotoxicity at 70.5 h was 6.25%. CCN(CC1CCOC1)C(=O)c1ccccc1S(=O)(=O)CC (stereo unspecified) showed a cytotoxicity at 70.5 h of 10.2%. In the case of O=C1NC(c2ccccc2)=N[C@@]12CC[C@@H]1CN(Cc3nccs3)C[C@@H]12, the cytotoxicity at 70.5 h is reported as -4.6%.
